Cc1ccccc1S(N)(=O)=O
solubility (mole fraction)
Settings	283.15 K	288.15 K	293.15 K	298.15 K	303.15 K	308.15 K	313.15 K	318.15 K
in acetonitrile	0.0337	0.0375	0.0423	0.0475	0.0534	0.0597	0.0669	0.0737
in ethanol	0.0242	0.0266	0.0293	0.0321	0.035	0.0384	0.042	0.0456
in ethyl acetate	0.0497	0.053	0.0566	0.0604	0.0644	0.0687	0.0729	0.0775
in isopropanol	0.0198	0.022	0.0246	0.0276	0.0305	0.0337	0.0374	0.0414
in methanol	0.0277	0.0305	0.0341	0.0378	0.0425	0.0473	0.0526	0.0579
in n-butanol	0.0209	0.0232	0.0257	0.0286	0.0316	0.0348	0.0382	0.0421
in n-propanol	0.0226	0.0249	0.0274	0.0301	0.0331	0.0361	0.0394	0.0427

Cc1ccc(S(N)(=O)=O)cc1
solubility (mole fraction)
Settings	283.15 K	288.15 K	293.15 K	298.15 K	303.15 K	308.15 K	313.15 K	318.15 K
in acetonitrile	0.078	0.0848	0.0955	0.106	0.118	0.13	0.143	0.159
in ethanol	0.0344	0.0392	0.0448	0.0524	0.0608	0.0701	0.0801	0.0914
in ethyl acetate	0.0728	0.0786	0.0859	0.0946	0.104	0.114	0.123	0.133
in isopropanol	0.0203	0.0232	0.0267	0.0306	0.0347	0.0392	0.0445	0.0509
in methanol	0.0441	0.0505	0.0569	0.0648	0.073	0.0827	0.0932	0.104
in n-butanol	0.0242	0.028	0.0316	0.0358	0.0403	0.0452	0.0501	0.0565
in n-propanol	0.0272	0.0313	0.0358	0.0415	0.047	0.0542	0.0611	0.0689

— BigSolDB 2.1
